# Peptide text beside a SMILES is read from it. * marks the point of attachment. 5FAM = O=C1OC2(c3ccc(O)cc3Oc3cc(O)ccc32)c2ccc(C(=O)*)cc21
# Columns and labels:
# FZD CRD-Fc proteins = test: fluorescence size-exclusion chromatography (FSEC) with FZD CRD-Fc proteins; format: binding; details: 1 μM peptide, 250 nM FZD CRD-Fc, overnight at 4° C.; FZD1, FZD2 and FZD7 CRD-Fc
# Protocol: (§1) Fluorescence size-exclusion chromatography (FSEC) experiments were run using an AKTA FPLC system (General Electric Company) with UNICORN software package (version 5.31). Samples were resolved using a SEC3000 or SEC2000 (Phenomenex; Torrence, Calif.) column at 0.5 mL/min in phosphate buffer. Fluorescence was monitored using a FP-2020 Plus fluorescence detector (Jasco Analytical Instruments, Easton, Md.) in normal mode (excitation/emission, […]; gain=100; STD=32). All samples were prepared with a final DMSO concentration of 1% and incubated overnight at 4° C. prior to sample separation. FZD CRD-Fc samples were kept at ˜250 nM in the presence of excess 5FAM labeled peptide (1 μM). […]
# Selective targeting of the FZD7 receptor subclass was also observed chromatographically. […] See FIGS. 4A and 4B, which provide representative fluorescence traces of 1 μM 5FAM-Fz7-21 and 1 μM 5FAM-Fz7-21S, respectively, incubated with various FZD CRD-Fc proteins (250 nM) overnight at 4° C. prior to analysis by FSEC. […] In FIG. 24A, molecular weight (MW) standards analyzed by UV absorption were plotted as a function of elution volume (Ve) over void volume (Vo). […] Measured values represent the mean±standard deviation (SD) of three independent experiments. […] Binding to recombinant FZD3 and 6 CRDs could not be assessed due to challenges with the expression of these proteins. […]
# [1] = test system: human sFRP1, sFRP2, sFRP3, sFRP4, or sFRP5; test: FSEC with secreted Frizzled-related proteins; format: binding; details: sFRP ~250 nM, peptide 10 μM
# Protocol: as §1, with “μM). Human secreted Frizzled-related proteins were maintained at ˜250 nM in the presence of excess 5FAM-labeled peptide (10 μM).” for “μM).”
# For FIGS. 4C and 5C, values represent the mean±s.e.m. of three independent experiments. […] Samples were resolved using a SEC3000 column (Phenomenex; Torrence, Calif.) at 0.5 mL/min in phosphate buffer saline (PBS) and fluorescence was monitored with an FP-2020 Plus fluorescence detector (Jasco Analytical Instruments, Easton, Md.) using normal mode (excitation/emission […]); gain=100; STD=32. […] Molecular weights were determined by standards (BioRad catalogue number, 151-1901) run prior to sample runs.
# FZD CRD-Fc = test: binding of 5FAM peptides to the FZD CRD-Fc panel
# Protocol: Control experiments using 5FAM-Fz7-21S were performed in parallel. 5FAM-Fz7-21 or 5FAM-Fz721S was incubated with each of the aforementioned FZD CRD-Fcs overnight at 4° C. in PBS and resolved via SEC.
# In FIGS. 3A-3I, 5FAM-Fz7-21 or 5FAM-Fz7-21S (50 nM in PBS) was incubated with increasing concentration of FZD CRD-Fc (2-fold serial dilutions), and fluorescence intensity was measured using either a Monolith NT.115 or NT.115Pico instrument (NanoTemper Technologies). EC50 values represent the 95% confidence interval of at least three independent experiments, excepting hFZD1 CRD-Fc+5FAM-Fz7-21S, which was done twice. EC50 ovalues were calculated with Prism Graphpad using the Log(agonist) vs. response [variable slope (four parameters) function: Y=Bottom+(Top-Bottom)/(1+10^((Log EC−X)*HillSlope))]. Plotted values represent the mean±s.e.m.
# [2] = test system: FZD7, FZD4, 5 or 6 receptors stably expressed in HEK293 cells; test: flow cytometry of cells stably expressing gD-FZD; format: binding; details: peptide 12.5 μM
# Protocol: Cell lines stably expressing gD-FZD were grown to ˜80% confluence in DMEM:F12 (50:50) media supplemented with 10% FBS (cat. no. 1500-100; Seradigm), 1× GlutMAX (cat. no. 35050-061; Gibco) and G418 (200 μg/mL; cat. no. A1720; Sigma), released with 0.05% trypsin/EDTA in PBS (cat. no. 15400-054; Gibco), collected on ice and buffer exchanged into ice cold FACS buffer (0.5% BSA and 0.05% NaAz in PBS). 100,000 cells/well were plated into an ice cold U-bottomed plate (cat. no. 3799; Costar) and cells pelleted by centrifugation at 1200 rpm for 3 min. […] Data was collected with FACSDiva (BD; version 8.0.1) and analyzed using FLowJo (FlowJo, LLC; v10.1).
# Selective targeting of the FZD7 receptor subclass was also observed chromatographically. […] See FIGS. 4A and 4B, which provide representative fluorescence traces of 1 μM 5FAM-Fz7-21 and 1 μM 5FAM-Fz7-21S, respectively, incubated with various FZD CRD-Fc proteins (250 nM) overnight at 4° C. prior to analysis by FSEC. […] In FIG. 24A, molecular weight (MW) standards analyzed by UV absorption were plotted as a function of elution volume (Ve) over void volume (Vo). […] Measured values represent the mean±standard deviation (SD) of three independent experiments. […] Binding to recombinant FZD3 and 6 CRDs could not be assessed due to challenges with the expression of these proteins.
Compound,complex with FZD CRD-Fc resolved by FSEC (FZD CRD-Fc proteins),binding to sFRPs by FSEC [1],binding (FZD CRD-Fc; any members of the FZD CRD family),binding by flow cytometry analysis [2],"binding (FZD CRD-Fc; FZD5, FZD8, FZD9 and FZD10 CRDs)","EC50 (FZD CRD-Fc; hFZD1 CRD-Fc, hFZD2 CRD-Fc, hFZD7 CRD-Fc, and mFZD7 CRD-Fc, read-out: affinities)"
CSCC[C@H](NC(=O)[C@@H](NC(=O)[C@H](Cc1c[nH]cn1)NC(=O)[C@H](CO)NC(=O)[C@H](Cc1c[nH]c2ccccc12)NC(=O)[C@H](Cc1ccccc1)NC(=O)[C@H](CCC(=O)O)NC(=O)[C@H](CC(C)C)NC(=O)[C@H](CC(=O)O)NC(=O)[C@H](CC(=O)O)NC(=O)[C@H](CO)NC(=O)[C@@H]1CCCN1C(=O)[C@H](CC(C)C)NC(=O)c1ccc2c(c1)C(=O)OC21c2ccc(O)cc2Oc2cc(O)ccc21)C(C)C)C(=O)N[C@@H](Cc1ccc(O)cc1)C(N)=O [5FAM-Fz7-21S] (5FAM-LPSDDLEFWSHVMY-NH2; N-terminus and C-terminus assumed),no complex was observed,not found to bind,no detectable binding,,,
CSCC[C@H](NC(=O)[C@@H](NC(=O)[C@H](Cc1c[nH]cn1)NC(=O)[C@H](CS)NC(=O)[C@H](Cc1c[nH]c2ccccc12)NC(=O)[C@H](Cc1ccccc1)NC(=O)[C@H](CCC(=O)O)NC(=O)[C@H](CC(C)C)NC(=O)[C@H](CC(=O)O)NC(=O)[C@H](CC(=O)O)NC(=O)[C@H](CO)NC(=O)[C@@H]1CCCN1C(=O)[C@H](CC(C)C)NC(=O)c1ccc2c(c1)C(=O)OC21c2ccc(O)cc2Oc2cc(O)ccc21)C(C)C)C(=O)N[C@@H](Cc1ccc(O)cc1)C(N)=O [5FAM-Fz7-21] (5FAM-LPSDDLEFWCHVMY-NH2; N-terminus and C-terminus assumed),could be resolved,not found to bind,,"predominant binding to FZD7 with minimal binding to FZD4, 5 or 6 receptors",little to no binding,39 to 116 nM

# — patent US20190359653A1, “SELECTIVE PEPTIDE INHIBITORS OF FRIZZLED” (Genentech, Inc., priority 2016, published 2019)
